The subject of data set [1] is MDA-MB-231. Nature of the data set: Induction of apoptosis in human MDA-MB-231 cells assessed as necrotic cells at 5 uM incubated for 72 hrs by Annexin V and PI staining based flow cytometry analysis (reference value: 0.32 %). Type of data set: functional.
In data set [2] the test system is MDA-MB-231. Nature of the data set: Induction of apoptosis in human MDA-MB-231 cells assessed as late apoptotic cells at 5 uM incubated for 72 hrs by Annexin V and PI staining based flow cytometry analysis (reference value: 0.45 %). Type of data set: functional. (In general: Flow cytometry measures light scatter and fluorescence of single cells or particles in a stream.)

The target of data set [3] is T1, Histone-lysine N-methyltransferase EHMT2 (Homo sapiens, UniProt Q96KQ7).
T1 sequence (Q96KQ7 whole entry): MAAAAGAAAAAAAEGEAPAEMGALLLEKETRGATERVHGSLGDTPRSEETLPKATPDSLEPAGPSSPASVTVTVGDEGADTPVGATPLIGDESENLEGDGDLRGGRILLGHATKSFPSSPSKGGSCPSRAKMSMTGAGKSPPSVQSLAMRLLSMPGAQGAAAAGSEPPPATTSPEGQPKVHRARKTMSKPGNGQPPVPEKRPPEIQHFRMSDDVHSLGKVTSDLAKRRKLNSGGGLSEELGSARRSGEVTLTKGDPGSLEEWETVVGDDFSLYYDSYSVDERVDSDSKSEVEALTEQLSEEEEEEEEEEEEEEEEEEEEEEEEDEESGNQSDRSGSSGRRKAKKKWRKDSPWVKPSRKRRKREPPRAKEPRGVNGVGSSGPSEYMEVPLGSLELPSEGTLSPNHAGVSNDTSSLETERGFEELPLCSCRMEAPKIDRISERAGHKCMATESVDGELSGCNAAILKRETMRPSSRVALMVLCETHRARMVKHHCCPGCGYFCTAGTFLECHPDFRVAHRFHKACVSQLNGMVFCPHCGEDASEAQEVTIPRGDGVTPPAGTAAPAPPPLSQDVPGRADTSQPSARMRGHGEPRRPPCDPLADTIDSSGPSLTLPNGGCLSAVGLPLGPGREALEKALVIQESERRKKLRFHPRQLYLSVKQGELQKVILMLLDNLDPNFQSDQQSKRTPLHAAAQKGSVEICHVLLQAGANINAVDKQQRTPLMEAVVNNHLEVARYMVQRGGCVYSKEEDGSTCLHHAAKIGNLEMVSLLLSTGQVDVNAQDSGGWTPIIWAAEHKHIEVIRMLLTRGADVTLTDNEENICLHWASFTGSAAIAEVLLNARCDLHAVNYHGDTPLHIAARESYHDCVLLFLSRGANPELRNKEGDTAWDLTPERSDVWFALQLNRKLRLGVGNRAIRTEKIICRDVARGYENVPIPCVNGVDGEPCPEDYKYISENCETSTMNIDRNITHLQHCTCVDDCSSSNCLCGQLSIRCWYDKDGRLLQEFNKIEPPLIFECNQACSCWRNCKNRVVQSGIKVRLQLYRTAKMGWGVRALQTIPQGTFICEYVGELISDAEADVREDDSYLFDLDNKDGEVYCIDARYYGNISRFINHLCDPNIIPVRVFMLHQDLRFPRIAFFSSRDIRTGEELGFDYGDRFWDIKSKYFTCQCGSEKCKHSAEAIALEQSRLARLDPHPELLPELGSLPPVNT
Nature of the data set: Inhibition of G9a (unknown origin).

The subject of data set [4] is MDA-MB-231. In words: Induction of apoptosis in human MDA-MB-231 cells assessed as early apoptotic cells at 20 uM incubated for 72 hrs by Annexin V and PI staining based flow cytometry analysis (reference value: 0.92 %). Type of data set: functional.
In a further data set the test system is 4T1. Nature of the data set: Antiproliferative activity against mouse 4T1 cells incubated for 3 to 5 days by MTT assay. Type of data set: functional, cell-based. The settings on record: Mus musculus, 4T1; read-out: IC50. Background: Tetrazolium assays rely on reduction of a dye to a coloured formazan, in cell work by metabolically active cells.
Data set [5] can be described thus: AUC(0 to infinity) in ICR mouse at 2 mg/kg, iv measured upto 12 hrs by LC-MS/MS analysis. Type of data set: ADME, organism-based. To be noted: in vivo.
Data set [6] deals with T2, Histone-lysine N-methyltransferase EHMT2 (Homo sapiens) (UniProt Q96KQ7).
T2 sequence (whole entry): T1 sequence (Q96KQ7 whole entry)
Nature of the data set: Inhibition of G9a (unknown origin) at 1 uM by AlphaLISA immunodetection assay relative to control. For orientation: In Alpha technology, singlet oxygen from a donor bead excites a nearby acceptor bead.

In data set [7] the test system is MDA-MB-231. Nature of the data set: Inhibition of colony formation in human MDA-MB-231 cells at 1 to 10 uM refreshed every 4 days for 12 days by crystal violet staining based assay. Type of data set: functional, cell-based. To be noted: dose 1-10 µM, time 12.0 day.
Data set [8] is described as follows: Tmax in ICR mouse at 2 mg/kg, iv measured upto 12 hrs by LC-MS/MS analysis. Type of data set: ADME, organism-based. The settings on record: in vivo.
Data set [9] relates to MDA-MB-231. Nature of the data set: Antiproliferative activity against human MDA-MB-231 cells incubated for 3 to 5 days by MTT assay. Type of data set: functional, cell-based. To be noted: time 3-5 day.
Data set [10] deals with MDA-MB-231. Nature of the data set: Induction of apoptosis in human MDA-MB-231 cells assessed as necrotic cells at 10 uM incubated for 72 hrs by Annexin V and PI staining based flow cytometry analysis (reference value: 0.32 %). Type of data set: functional.
Data set [11] relates to MDA-MB-231. Nature of the data set: Antiproliferative activity against human MDA-MB-231 cells at 1 to 5 nM by MTT assay. Type of data set: functional, cell-based. The settings on record: dose 1-5 nM, time 3-5 day, TDE = time-dependent effect.

The source made the active and inactive calls. No cut-off for these calls is given here.

As to `C=CC(=O)Nc1cccc(-c2nc(NC3CCN(C)CC3)c3cc(OC)c(OC)cc3n2)c1`, the Activity with MDA-MB-231 [1] was 0.93%; with MDA-MB-231 [2] it was 3.01%; in the data set with MDA-MB-231 [4] it was 21.6%; in the data set on MDA-MB-231 [9], “Dose-Dependent Effect”; in the data set with MDA-MB-231 [10], 1.28%; in the data set on MDA-MB-231 [11] it was “Tde”. The half-inhibitory concentration (IC50) (in general, the point on the concentration scale where inhibition reaches its midpoint) in [3] was 1220 nM; in the data set with 4T1, 4670 nM. The AUC(0-inf) (usually the area under the concentration-time curve extrapolated to infinity) in [5] was determined as 1690 ng·h/mL. In data set [6], the inhibition – broadly, the percentage by which the read-out fell short of the control – amounted to 96%. For the same compound, the inhibition entry with MDA-MB-231 [7] was “Active”. The time of peak concentration (Tmax) (as a rule, the time from dosing to the highest level) in [8] amounted to 25.2 min.

The values are drawn from ChEMBL document CHEMBL5634121, “Discovery of novel G9a/GLP covalent inhibitors for the treatment of triple-negative breast cancer” (Eur J Med Chem, 2023).
